We go through 84 compounds from PubChem BioAssay AID686957 (The Scripps Research Institute Molecular Screening Center, 2013).

The source made the active and inactive calls. The rule behind the calls is not given here. A value given as a limit tells only on which side of the number the result lay.

This experiment deals with T-cell receptor (TCR)-CD3 interaction, human (TCR alpha chain TRAV4). The experiment in a line: IC50 for blocking TCR-CD3 binding – biochemical, fluorescence, TAMRA-labeled TCR probe, dose response (AID 686957).
With `C/C(=N\NC(=O)c1nnn(-c2nonc2N)c1CN(C)c1ccccc1)c1ccccc1O`, the IC50 is > 94.1 µM (inactive).

For the compound `O=C(NNC(=O)c1ccccc1O)c1ccccc1O`, the IC50 was > 93.9 µM (inactive).

`Oc1ccc(/C=N/N=C/c2ccc(O)c(O)c2)cc1O`: the IC50 was 2.24 µM.

For `O=C(Cc1ccccc1)NNC(=S)NC(=O)c1cccnc1`, the IC50 was > 94.1 µM (inactive).

In the case of `CN(C)S(=O)(=O)c1cccc(NC(=O)COC(=O)c2cc(-c3cccc(Br)c3)nc3ccccc23)c1`, the IC50 entry is “inactive”.

Regarding `COc1ccccc1NC(=O)NNC(=O)c1cc2ccccc2cc1O`, the IC50 was > 94.1 µM (inactive).

Consider `O=C1Nc2ccccc2/C1=N\N=C\c1ccc(O)c(O)c1`, for which the IC50 is > 94.1 µM (inactive).

Regarding `O=C(NNC(=O)c1ccccc1F)c1cccc(-n2cccc2)c1`, the IC50 was > 94 µM (inactive).

As for `CN=c1scc(C)n1/N=C/c1ccc(O)c(O)c1O`, the IC50 entry was “inactive”.

Take `O=C(N/N=C/c1cc(Br)cc(Cl)c1O)c1ccc2c(c1)OCO2`: the IC50 was > 94.1 µM (inactive).

`Cc1cc(C)c2c(N)c(C(=O)NN)sc2n1`: the IC50 is > 94.1 µM (inactive).

As to `Cc1ccc(-c2[nH]c3cc(C(=O)NCCCn4ccnc4)ccc3c(=O)c2O)cc1`, the IC50 entry was “inactive”.

For `O=c1c2ccccc2nc(COc2ccccc2)n1/N=C/c1cc([N+](=O)[O-])ccc1O`, the IC50 was > 94.1 µM (inactive).

Turning to `Cc1cc2oc3ccc(NCCCn4ccnc4)cc3c(=O)c2cc1C`, the IC50 is > 94.1 µM (inactive).

For the compound `COc1cc(/C=N/NC(=O)COc2ccc(Cl)cc2)ccc1OS(=O)(=O)c1ccc(C)cc1`, the IC50 entry is “inactive”.

In the case of `Nc1nnc(CC(=O)N/N=C\c2cc([N+](=O)[O-])ccc2O)s1`, the IC50 is > 94.1 µM (inactive).

For `COc1ccc(C(=O)C=CNNC(=O)c2ccc(Cl)cc2)cc1`, the IC50 was > 94.1 µM (inactive).

Consider `O=C(N/N=C/c1c(O)n(Cc2ccco2)c(=O)[nH]c1=O)c1ccccc1`, for which the IC50 is > 94.2 µM (inactive).

For `COc1ccccc1C(=O)NNC(=O)c1ccc(NC(=O)CC(C)C)cc1`, the IC50 is > 94.1 µM (inactive).

Regarding `Oc1c(Br)cc(Br)cc1/C=N/NC(=S)N[C@H]1CC2C=CC1C2` (some centres undefined), the IC50 was > 94.1 µM (inactive).

On to `Cc1ccc(C(=O)NNC(=O)c2ccc3ccccc3c2O)cc1`, for which the IC50 was > 94 µM (inactive).

For the compound `O=C(NNC(=O)c1c(O)c2ccccc2[nH]c1=O)c1ccccc1`, the IC50 was > 94.1 µM (inactive).

Take `NNC(=O)c1nc[nH]c1C(=O)Nc1ccccn1`: the IC50 is > 94.2 µM (inactive).

For `O=C(NNC(=O)c1cc(Cl)ccc1O)c1cccc(S(=O)(=O)N2CCOCC2)c1`, the IC50 was > 94.1 µM (inactive).

For the compound `CCOc1ccc(NC(=O)NNC(=O)c2ccc3ccccc3c2O)cc1`, the IC50 is > 94.1 µM (inactive).

As to `CC1CCN(S(=O)(=O)c2ccc(NC(=O)Cn3nnc(-c4ccccc4F)n3)cc2)CC1`, the IC50 entry is “inactive”.

`Cc1ccn2cc(-c3ccc(O)c(O)c3)nc2c1`: the IC50 was > 94.1 µM (inactive).

For `C/C(=N\NC(=O)c1c(C)nc2ccccn12)c1ccc(O)cc1O`, the IC50 is > 94.1 µM (inactive).

Consider `O=C(CNC(=O)c1cccc(Br)c1)N/N=C/c1cc(Br)cc(Br)c1O`, for which the IC50 was > 94.1 µM (inactive).

With `Cc1c(C(=O)NNC(=O)c2ccccc2O)oc2ccccc12`, the IC50 is > 94 µM (inactive).

Take `Cc1ccc(NC(=O)NNC(=O)c2cc3ccccc3cc2O)cc1`: the IC50 is > 94.1 µM (inactive).

For the compound `Cc1c(CC(=O)N2CCN(C(=O)C3COc4ccccc4O3)CC2)c(=O)oc2c(O)c(O)ccc12` (centres undefined), the concentration for half-maximal inhibition (IC50) was 6.03 µM.

`O=C(O)CC(CCc1ccccc1)OC1OC(CO)C(O)C(O)C1O` (centres undefined): the IC50 was > 94.1 µM (inactive).

Turning to `Cc1ccc(-n2c(O)c(/C=N/NC(=O)C3COc4ccccc4O3)c3ccccc3c2=O)cc1` (centres undefined), the IC50 is > 94.1 µM (inactive).

Take `CN(CCC#N)C(=O)COC(=O)c1c2c(nc3ccccc13)/C(=C\c1ccco1)CC2`: the IC50 was > 94.1 µM (inactive).

As for `Cc1nc(S/C(=C/c2ccc(-c3ccc(C(=O)O)cc3)o2)C(=O)O)n[nH]1`, the IC50 is > 94.2 µM (inactive).

As to `COc1ccc(C(=O)NNC(=S)NC(=O)c2ccc(Br)o2)cc1OC`, the IC50 is > 94.1 µM (inactive).

Turning to `O=C1C(=Cc2cn(-c3ccccc3)nc2-c2ccc(OCc3ccccc3)cc2)SC(=S)N1CCS(=O)(=O)O`, the IC50 was > 94.2 µM (inactive).

Take `O=C(N/N=C/c1ccc(F)cc1)c1cc(-c2ccco2)nc2ccccc12`: the IC50 was > 94.1 µM (inactive).

In the case of `O=C(CN1C(=O)S/C(=C\c2ccccc2)C1=O)NNC(=O)c1ccccc1O`, the IC50 is > 94.1 µM (inactive).

As to `COc1cccc(C(=O)NNC(=O)c2ccc3ccccc3c2O)c1`, the IC50 was > 94.1 µM (inactive).

Regarding `Cc1ccc2nc(-c3ccc(O)c(O)c3)cn2c1`, the IC50 was > 94.1 µM (inactive).

For `Cn1c(=O)c(C(=O)NNC(=O)c2ccccc2F)c(O)c2ccccc21`, the IC50 was > 94.1 µM (inactive).

With `Cc1cc(C(=O)N/N=C/c2cc(Cl)cc([N+](=O)[O-])c2O)n[nH]1`, the IC50 was > 94.1 µM (inactive).

Turning to `O=C(N/N=C/c1cc([N+](=O)[O-])cc([N+](=O)[O-])c1O)/C(=C\c1cccs1)NC(=O)c1ccccc1`, the IC50 is > 94.1 µM (inactive).

`COc1ccc(NC(=O)NNC(=O)c2cc3ccccc3cc2O)cc1`: the IC50 was > 94.1 µM (inactive).

As to `COC(=O)C1CCN(C(=O)c2cc(-c3ccco3)nc3ccccc23)CC1`, the IC50 was > 94.1 µM (inactive).

Turning to `Cc1cc(/C=N/n2c(COc3ccccc3C)nc3ccccc3c2=O)c(O)c([N+](=O)[O-])c1`, the IC50 is > 94.1 µM (inactive).

Consider `O=c1cc(-c2ccc(O)c(O)c2)oc2ccc3ccccc3c12`, for which the IC50 was > 94.2 µM (inactive).

Take `COCCn1c(=NC(=O)c2cc(-c3cccs3)nc3ccccc23)sc2cc(S(N)(=O)=O)ccc21`: the IC50 was > 94.1 µM (inactive).

`Cc1cc([N+](=O)[O-])cc(/C=N/n2c(C)nc3ccccc3c2=O)c1O`: the IC50 was > 94 µM (inactive).

In the case of `Cc1cc(C)c(C)c(S(=O)(=O)N2CCC(C(=O)NNC(=O)c3ccccc3O)CC2)c1C`, the IC50 was > 94.1 µM (inactive).

In the case of `Cn1c(O)c(/C=N/NC(=O)c2cc3ccccc3cc2O)c2ccccc21`, the IC50 is > 94.1 µM (inactive).

With `Cc1nc2ccccc2c(=O)n1/N=C/c1cc(Br)cc(Br)c1O`, the IC50 is > 94.1 µM (inactive).

Regarding `CCc1ccc(NC(=O)NNC(=O)c2ccc3ccccc3c2O)cc1`, the IC50 is > 94.1 µM (inactive).

For the compound `O=c1c(CO)cc(CO)cc(CO)c1O`, the IC50 entry is “inactive”.

In the case of `Cc1nc(S/C(=C/c2ccc(OCc3ccc(C(=O)O)cc3)cc2)C(=O)O)n[nH]1`, the IC50 is > 94.1 µM (inactive).

Consider `O=C(CCN1CCN(c2ccccc2)CC1)N/N=C/c1ccc(O)c(O)c1O`, for which the IC50 is > 94.1 µM (inactive).

For the compound `COc1ccc(/C=C2\SC(=O)N(CC(=O)NNC(=O)c3ccccc3O)C2=O)cc1OC`, the IC50 is > 94.1 µM (inactive).

Regarding `CCOc1ccc(C(=O)CCC(=O)NNC(=O)c2ccccc2O)cc1`, the IC50 was > 94.1 µM (inactive).

Take `C=CCn1c(O)c(N=NC(=O)CNC(=O)/C=C/c2ccco2)c2ccccc21`: the IC50 is > 94.1 µM (inactive).

On to `Cc1ccc(S(=O)(=O)N2CCC(C(=O)NNC(=O)c3ccccc3O)CC2)cc1C`, for which the IC50 was > 94.1 µM (inactive).

For the compound `CCn1c(SCC(=O)c2ccc(O)c(O)c2)nnc1-c1ccccc1OC`, the IC50 was > 94.1 µM (inactive).

In the case of `Cc1[nH]n(-c2ccccc2)c(=O)c1N=Nc1ccccc1O`, the IC50 is > 94.1 µM (inactive).

Turning to `COc1cc(OC)cc(C(=O)N/N=C/c2ccc(OC)c(COc3ccc4ccccc4c3)c2)c1`, the IC50 was > 94.1 µM (inactive).

Consider `COc1ccc(C(=O)NNC(=S)NC(=O)c2cccs2)cc1`, for which the IC50 is > 94 µM (inactive).

`COc1ccc(/C=N\NC(=O)c2cc(O)c(O)c(O)c2)cc1CN1CCN(c2ccc(F)cc2)CC1`: the IC50 was > 94.2 µM (inactive).

In the case of `COc1ccc(C(=O)NNC(=S)NC(=O)c2cccnc2)cc1`, the IC50 was > 94.1 µM (inactive).

`O=C(NNC(=O)c1ccccc1O)c1ccc(-c2ccc([N+](=O)[O-])cc2)o1`: the IC50 was > 94.1 µM (inactive).

With `Cc1ccc(O)c(/C=N/NC(=O)COc2ccc3c(C)cc(=O)oc3c2)c1`, the IC50 was > 94.1 µM (inactive).

As to `O=C(N/N=C/c1cc(Cl)cc([N+](=O)[O-])c1O)c1cccc(S(=O)(=O)N2CCOCC2)c1`, the IC50 is > 94.1 µM (inactive).

As for `COc1ccccc1N(C)S(=O)(=O)c1ccc(C(=O)NNC(=O)c2ccccc2O)cc1`, the IC50 is > 94.1 µM (inactive).

`COc1ccc(C)cc1NC(=O)NNC(=O)c1cc2ccccc2cc1O`: the IC50 is > 94.1 µM (inactive).

In the case of `COc1ccccc1C(=O)NNC(=O)c1ccc2ccccc2c1O`, the IC50 was > 94.2 µM (inactive).

On to `N#C/C(=C\c1ccc(O)c(O)c1)C(=O)Nc1cccc2ncccc12`, for which the IC50 was 8.85 µM.

Consider `COc1ccc(C(=O)NNC(=S)NC(=O)c2cccc([N+](=O)[O-])c2)cc1`, for which the IC50 is > 94.1 µM (inactive).

For `COc1ccc(C(=O)Nc2nnc(CC(=O)N/N=C/c3ccc(O)cc3O)s2)cc1`, the IC50 is > 94.1 µM (inactive).

For `O=C(CP(=O)(c1ccccc1)c1ccccc1)N/N=C/c1cc(Br)cc(Br)c1O`, the IC50 was > 94.2 µM (inactive).

As to `O=C(CNC(=O)c1ccccc1F)NNC(=O)c1ccccc1O`, the IC50 was > 94.1 µM (inactive).

Regarding `O=c1cc(-c2ccc(O)cc2)oc2c(O)c(O)c(O)c(O)c12`, the IC50 was > 94.2 µM (inactive).

Regarding `O=C(CCl)NNC(=O)c1c(O)c2ccccc2[nH]c1=O`, the IC50 is > 94 µM (inactive).

Consider `O=C(NC(C(=O)N/N=C/c1cc([N+](=O)[O-])ccc1O)c1n[nH]c(=O)c2ccccc12)c1ccccc1` (centres undefined), for which the IC50 is > 94.1 µM (inactive).

Turning to `COC(=O)Nc1ccc(S(=O)(=O)NNC(=O)c2c(O)c3ccccc3n(C)c2=O)cc1`, the IC50 is > 94.1 µM (inactive).

Take `O=C(NNC(=O)c1ccc2ccccc2c1O)Nc1ccc(F)cc1`: the IC50 was > 94.1 µM (inactive).
